According to patent US20110207751A1, “HETEROCYCLIC COMPOUNDS AND USES AS ANTICANCER AGENTS” (priority 2010, published 2011):
Structures can show the parent of a compound that is named as a salt.

What was measured:
[1] = tested on: H292 cells (human pulmonary lung carcinoma cell line); experiment: Inhibition of cell proliferation, xCelligence cell index; type: cell-based; settings: NCI-H292, 72 hr post compound treatment, read-out: calculated IC50
From the text: (§1) The biological activity of compounds disclosed herein was monitored and profiled using the Real-Time Cell Electronic Sensing (RT-CES®) system from ACEA Biosciences, Inc. The RT-CES system utilizes cell-substrate impedance technology to monitor cellular behavior inside tissue culture wells in a microtiter plate format. The technology features in the integration of molecular and cell biology with microelectronics and is based on the electronic detection of biological assay process. The details of this cell electronic sensing technology and associated devices, systems and methods of use are described in U.S. Pat. No. 7,167,585; U.S. Pat. No. 7,468,255; PCT publication number WO 2004/010102; U.S. Pat. No. 7,470,533; and U.S. Pat. No. 7,459,303, each of which is incorporated herein by reference. Additional details of RT-CES technology are further disclosed in U.S. Pat. No. 7,468,255.
(§2) For measurement of cell-substrate or cell-electrode impedance using RT-CES technology, microelectrodes having appropriate geometries are fabricated onto the bottom surfaces of microtiter plate or similar device, facing into the wells. […] When there are changes to the biological status of the cells analogue electronic readout signals are measured automatically and in real time, and are converted to digital signals for processing and for analysis. In a RT-CES system, a cell index (arbitrary representation of change in impedance) is automatically derived and provided based on measured electrode impedance values. […]
(§3) To quantify cell status based on the measured cell-electrode impedance, a parameter termed Cell Index is derived. Cell Index is a quantitative measure of the status of the cells in an electrode-containing well. […]
(§4) H292 cells (human pulmonary lung carcinoma cell line) were seeded into wells of 96 well E-plate devices (Roche) with an initial seeding density of 5000 cells per well and were pre-incubated in incubator under standard cell culture condition for about 24 hours. […] The cell status was monitored prior to and after the compound addition using xCelligence system (Roche). […]

MAP-rich tubulin = experiment: In vitro microtubule assembly assay; type: biochemical; settings: absorbance at 405 nm
Description: In vitro microtubule assembly assay. Microtubule polymerization was conducted in a 96-well microtiter plate with MAP-rich tubulin and various concentrations of COMPOUND O in a buffer containing 80 mM PIPES pH 6.9, 0.5 mM EGTA, 2 mM MgCl2, 1 mM GTP, 10% glycerol and 4% (v/v) dimethyl sulfoxide (DMSO) based on the HTS-tubulin polymerization assay kit protocol (Cytoskeleton). The increase in absorbance was measured at 405 nm a Beckman Multimode DTX880 plate reader at 37° C. and recorded every 60 seconds for 30 minutes.

[2] = tested on: U118MG cells (human brain cancer cell line); experiment: Inhibition of cell proliferation, xCelligence cell index; type: cell-based; settings: U-118-MG, 72 hr post compound treatment, read-out: calculated IC50
[3] = tested on: HT29 cells (human colon cancer cell line); experiment: as above; type: cell-based; settings: HT-29, 72 hr post compound treatment, read-out: calculated IC50
From the text: as §1, §2, §3
as §4, with “HT29” for “H292”, “colon cancer” for “pulmonary lung carcinoma”

[4] = tested on: H1993 cells (human non-small cell lung cancer cell line); experiment: as above; type: cell-based; settings: NCI-H1993, 72 hr post compound treatment, read-out: calculated IC50
[5] = tested on: B×PC3 cells (human pancreatic cancer cell line); experiment: as above; type: cell-based; settings: 72 hr post compound treatment, read-out: calculated IC50
From the text: as §1, §2, §3
as §4, with “B×PC3” for “H292”, “pancreatic cancer” for “pulmonary lung carcinoma”

[6] = tested on: A549 cells (human lung carcinoma cell line); experiment: Inhibition of cell proliferation, RT-CES cell index; type: cell-based; settings: 72 hr post compound treatment, read-out: calculated IC50
From the text: as §1, §2, §3
as §4, with “A549” for “H292”, “(human” for “(human pulmonary”, “RT-CES” for “xCelligence”, “(ACEA Biosciences).” for “(Roche).”

[7] = tested on: A172 cells (human brain cancer cell line); experiment: Inhibition of cell proliferation, xCelligence cell index; type: cell-based; settings: A 172, 72 hr post compound treatment, read-out: calculated IC50
From the text: For measurement of cell-substrate or cell-electrode impedance using RT-CES technology, microelectrodes having appropriate geometries are fabricated onto the bottom surfaces of microtiter plate or similar device, facing into the wells. Cells are introduced into the wells of the devices, and make contact to and attach to the electrode surfaces. The presence, absence or change of properties of cells affects the electronic and ionic passage on the electrode sensor surfaces. Measuring the impedance between or among electrodes provides important information about biological status of cells present on the sensors. When there are changes to the biological status of the cells analogue electronic readout signals are measured automatically and in real time, and are converted to digital signals for processing and for analysis. In a RT-CES system, a cell index (arbitrary representation of change in impedance) is automatically derived and provided based on measured electrode impedance values. […]
A172 cells (human brain cancer cell line) were seeded into wells of 96 well E-plate devices (Roche) with an initial seeding density of 5000 cells per well and were pre-incubated in incubator under standard cell culture condition for about 24 hours. […] The cell status was monitored prior to and after the compound addition using xCelligence system (Roche). […]

Row | Structure (SMILES) | IC50 [1] [nM] | effect on tubulin polymerization (MAP-rich tubulin; 0.04 μM) | effect on tubulin polymerization, concentration dependence (MAP-rich tubulin; various concentrations) | IC50 [2] [nM] | IC50 [3] [nM] | IC50 [4] [nM] | IC50 [5] [nM] | IC50 [6] [nM] | IC50 [7] [nM] | effect on tubulin polymerization (MAP-rich tubulin; 5 μM) | inhibition of tubulin polymerization compared with control sample (MAP-rich tubulin; 5 μM)
1 | CCc1ccc(Nc2nc(-c3c(C)nc4sccn34)cs2)cc1 [COMPOUND O, 2-(4-ethylphenyl)amino-4-(6-methylimidazo[2,1-b]thiazol-5-yl)-thiazole monohydrobromide] | 10.8 | no inhibition | inhibited in a concentration-dependent manner | 13.1 | 25.4 | 60.2 | 6.6 | 10.9 | 11.6 |  | 
2 | CC(=O)O[C@H]1C(=O)[C@@]2(C)[C@H]([C@H](OC(=O)c3ccccc3)[C@]3(O)C[C@H](OC(=O)[C@H](O)[C@@H](NC(=O)c4ccccc4)c4ccccc4)C(C)=C1C3(C)C)[C@]1(OC(C)=O)CO[C@@H]1C[C@@H]2O [paclitaxel] | 2.59 |  |  | 12.3 | 2.52 | 5.12 | 8.86 | 5.3 | 4.46 | further enhanced compared to that of the negative control | 
3 | CC[C@]1(O)C[C@H]2CN(CCc3c([nH]c4ccccc34)[C@@](C(=O)OC)(c3cc4c(cc3OC)N(C=O)[C@H]3[C@@](O)(C(=O)OC)[C@H](OC(C)=O)[C@]5(CC)C=CCN6CC[C@]43[C@@H]65)C2)C1 [vincristine] | 2.63 |  |  | 4.31 | 12.7 | 2.43 | 4.06 | 61.8 | 1.3 |  | more than 50%
